One data set deals with Bhas42 cells. Put plainly: Carcinogenicity prediction test (transformation test, OECD 231GD). The class given is cell-based. As to conditions: in vitro transformation test using Bhas42 cells, negative or positive. The protocol: Using the aldehyde compositions obtained in Examples and Lilial (3-(p-tert-butylphenyl)-2-methylpropanal), a transformation test (an in vitro carcinogenicity prediction test using Bhas42 cells) was performed based on OECD 231GD to determine whether the carcinogenicity was negative or positive. When the result of this test is negative, it is predicted that there is no possibility of causing carcinogenicity, and safety is high.

Data set [1] in a line: Evaluation of threshold of smell. As to conditions: diluted with dipropylene glycol, 10 to 0.001 ppm; lower limit concentration at which the smell can be identified.

The structures appear in SMILES notation.

For `CC(C=O)Cc1ccc(C(C)(C)C)cc1` (centres unmarked) [Comparative Example 2, 3-(p-tert-butylphenyl)-2-methylpropanal], in the data set with Bhas42 cells, the Carcinogenicity prediction test result was “Positive”. The “Threshold of smell (ppm)” value in data set [1] is reported as 1 ppm.

These data come from patent US20250382251A1, “ALDEHYDE COMPOSITION” (MITSUBISHI GAS CHEMICAL COMPANY, INC., priority 2022, published 2025).
